Data: ChEMBL document CHEMBL4715697, “Synthesis and biological activity of benzamide DNA minor groove binders” (2016)

Assays:
Type in all cases: functional
MDA-MB-468 [1] = experiment: Growth inhibition of human MDA-MB-468 cells assessed as cell growth at 1 uM incubated for 48 hrs by sulforhodamine B assay relative to control; conditions: read-out: Activity
NCI-H322M = experiment: Growth inhibition of human NCI-H322M cells assessed as cell growth at 0.1 uM incubated for 48 hrs by sulforhodamine B assay relative to control; conditions: read-out: Activity
Malme-3M [2] = experiment: Growth inhibition of human Malme-3M cells incubated for 48 hrs by sulforhodamine B assay
OVCAR-8 = experiment: Growth inhibition of human OVCAR-8 cells incubated for 48 hrs by sulforhodamine B assay
PC-3 = experiment: Growth inhibition of human PC-3 cells assessed as cell growth at 0.01 uM incubated for 48 hrs by sulforhodamine B assay relative to control; conditions: read-out: Activity
A549 = experiment: Growth inhibition of human A549/ATCC cells assessed as cell growth at 100 uM incubated for 48 hrs by sulforhodamine B assay relative to control; conditions: read-out: Activity
COLO 205 [3] = experiment: Growth inhibition of human COLO 205 cells assessed as cell growth at 0.1 uM incubated for 48 hrs by sulforhodamine B assay relative to control; conditions: read-out: Activity
NCI-H522 [4] = experiment: Growth inhibition of human NCI-H522 cells assessed as cell growth at 1 uM incubated for 48 hrs by sulforhodamine B assay relative to control; conditions: read-out: Activity
EKVX = experiment: Growth inhibition of human EKVX cells incubated for 48 hrs by sulforhodamine B assay
OVCAR-4 [5] = experiment: Growth inhibition of human OVCAR-4 cells assessed as cell growth at 1 uM incubated for 48 hrs by sulforhodamine B assay relative to control; conditions: read-out: Activity
MDA-MB-435 = experiment: Growth inhibition of human MDA-MB-435 cells assessed as cell growth at 100 uM incubated for 48 hrs by sulforhodamine B assay relative to control; conditions: read-out: Activity
UACC-257 = experiment: Growth inhibition of human UACC-257 cells assessed as cell growth at 1 uM incubated for 48 hrs by sulforhodamine B assay relative to control; conditions: read-out: Activity
MDA-MB-468 [6] = experiment: Growth inhibition of human MDA-MB-468 cells assessed as cell growth at 0.1 uM incubated for 48 hrs by sulforhodamine B assay relative to control; conditions: read-out: Activity
NCI-H522 [7] = experiment: Growth inhibition of human NCI-H522 cells assessed as cell growth at 100 uM incubated for 48 hrs by sulforhodamine B assay relative to control; conditions: read-out: Activity
HT-29 = experiment: Growth inhibition of human HT-29 cells incubated for 48 hrs by sulforhodamine B assay
T47D = experiment: Growth inhibition of human T47D cells assessed as cell growth at 0.01 uM incubated for 48 hrs by sulforhodamine B assay relative to control; conditions: read-out: Activity
LOX IMVI = experiment: Growth inhibition of human LOX IMVI cells incubated for 48 hrs by sulforhodamine B assay
OVCAR-4 [8] = experiment: Growth inhibition of human OVCAR-4 cells assessed as cell growth at 0.01 uM incubated for 48 hrs by sulforhodamine B assay relative to control; conditions: read-out: Activity
COLO 205 [9] = experiment: Growth inhibition of human COLO 205 cells assessed as cell growth at 100 uM incubated for 48 hrs by sulforhodamine B assay relative to control; conditions: read-out: Activity
CCRF-CEM = experiment: Growth inhibition of human CCRF-CEM cells assessed as cell growth at 0.1 uM incubated for 48 hrs by sulforhodamine B assay relative to control; conditions: read-out: Activity
HCT-15 = experiment: Growth inhibition of human HCT-15 cells incubated for 48 hrs by sulforhodamine B assay
A498 = experiment: Growth inhibition of human A498 cells incubated for 48 hrs by sulforhodamine B assay
UO-31 = experiment: Growth inhibition of human UO-31 cells assessed as cell growth at 0.01 uM incubated for 48 hrs by sulforhodamine B assay relative to control; conditions: read-out: Activity
SK-MEL-28 = experiment: Growth inhibition of human SK-MEL-28 cells assessed as cell growth at 100 uM incubated for 48 hrs by sulforhodamine B assay relative to control; conditions: read-out: Activity
DU-145 = experiment: Growth inhibition of human DU-145 cells assessed as cell growth at 0.01 uM incubated for 48 hrs by sulforhodamine B assay relative to control; conditions: read-out: Activity
SNB-75 = experiment: Growth inhibition of human SNB-75 cells incubated for 48 hrs by sulforhodamine B assay
Malme-3M [10] = experiment: Growth inhibition of human Malme-3M cells assessed as cell growth at 100 uM incubated for 48 hrs by sulforhodamine B assay relative to control; conditions: read-out: Activity
U-251 [11] = experiment: Growth inhibition of human U-251 cells incubated for 48 hrs by sulforhodamine B assay
CAKI-1 = experiment: Growth inhibition of human CAKI-1 cells assessed as cell growth at 0.01 uM incubated for 48 hrs by sulforhodamine B assay relative to control; conditions: read-out: Activity
SR = experiment: Growth inhibition of human SR cells assessed as cell growth at 100 uM incubated for 48 hrs by sulforhodamine B assay relative to control; conditions: read-out: Activity
786-0 = experiment: Growth inhibition of human 786-0 cells assessed as cell growth at 100 uM incubated for 48 hrs by sulforhodamine B assay relative to control; conditions: read-out: Activity
U-251 [12] = experiment: Growth inhibition of human U-251 cells assessed as cell growth at 0.01 uM incubated for 48 hrs by sulforhodamine B assay relative to control; conditions: read-out: Activity
TK-10 = experiment: Growth inhibition of human TK-10 cells assessed as cell growth at 0.01 uM incubated for 48 hrs by sulforhodamine B assay relative to control; conditions: read-out: Activity
[13] = read-out: LC50 (the source's name)
[14] = read-out: pLC50 (the source's name) (converted)

CC(=O)Nc1cc(CCl)cc(NC(=O)c2ccc(C(=O)Nc3cccc(NC(=O)CCCN(C)C)c3)cc2)c1
growth at 1 µM (MDA-MB-468 [1]): 86% | growth at 0.1 µM (NCI-H322M): 103% | GI50 (Malme-3M [2]; read-out: GI50): > 100 µM | LC50 (concentration killing 50% of cells) (Malme-3M [2]; read-out: LC50): > 100 µM | TGI (Malme-3M [2]; read-out: TGI): > 100 µM | GI50 (Malme-3M [2]; read-out: pGI50 (converted)): > 100 µM | LC50 (concentration killing 50% of cells) (Malme-3M [2]; read-out: pLC50 (converted)): > 100 µM | TGI (Malme-3M [2]; read-out: pTGI): > 100 µM | GI50 (OVCAR-8; read-out: GI50): > 100 µM | CC50 (OVCAR-8; [13]): > 100 µM | TGI (OVCAR-8; read-out: TGI): > 100 µM | GI50 (OVCAR-8; read-out: pGI50 (converted)): > 100 µM | CC50 (OVCAR-8; [14]): > 100 µM | TGI (OVCAR-8; read-out: pTGI): > 100 µM | growth at 0.01 µM (PC-3): 104% | growth at 100 µM (A549): 88% | growth at 0.1 µM (COLO 205 [3]): 108% | growth at 1 µM (NCI-H522 [4]): 89% | GI50 (EKVX; read-out: GI50): > 100 µM | LC50 (EKVX; read-out: LC50): > 100 µM | TGI (EKVX; read-out: TGI): > 100 µM | GI50 (EKVX; read-out: pGI50 (converted)): > 100 µM | LC50 (EKVX; read-out: pLC50 (converted)): > 100 µM | TGI (EKVX; read-out: pTGI): > 100 µM | growth at 1 µM (OVCAR-4 [5]): 91% | growth at 100 µM (MDA-MB-435): 94% | growth at 1 µM (UACC-257): 95% | growth at 0.1 µM (MDA-MB-468 [6]): 84% | growth at 100 µM (NCI-H522 [7]): 83% | GI50 (HT-29; read-out: GI50): > 100 µM | CC50 (HT-29; [13]): > 100 µM | TGI (HT-29; read-out: TGI): > 100 µM | GI50 (HT-29; read-out: pGI50 (converted)): > 100 µM | CC50 (HT-29; [14]): > 100 µM | TGI (HT-29; read-out: pTGI): > 100 µM | growth at 0.01 µM (T47D): 106% | GI50 (LOX IMVI; read-out: GI50): > 100 µM | LC50 (concentration giving 50% cell kill) (LOX IMVI; read-out: LC50): > 100 µM | TGI (LOX IMVI; read-out: TGI): > 100 µM | GI50 (LOX IMVI; read-out: pGI50 (converted)): > 100 µM | LC50 (concentration giving 50% cell kill) (LOX IMVI; read-out: pLC50 (converted)): > 100 µM | TGI (LOX IMVI; read-out: pTGI): > 100 µM | growth at 0.01 µM (OVCAR-4 [8]): 99% | growth at 100 µM (COLO 205 [9]): 100% | growth at 0.1 µM (CCRF-CEM): 113% | GI50 (HCT-15; read-out: GI50): > 100 µM | CC50 (HCT-15; [13]): > 100 µM | TGI (HCT-15; read-out: TGI): > 100 µM | GI50 (HCT-15; read-out: pGI50 (converted)): > 100 µM | CC50 (HCT-15; [14]): > 100 µM | TGI (HCT-15; read-out: pTGI): > 100 µM | GI50 (A498; read-out: GI50): > 100 µM | LC50 (concentration giving 50% net cell kill) (A498; read-out: LC50): > 100 µM | TGI (A498; read-out: TGI): > 100 µM | GI50 (A498; read-out: pGI50 (converted)): > 100 µM | LC50 (concentration giving 50% net cell kill) (A498; read-out: pLC50 (converted)): > 100 µM | TGI (A498; read-out: pTGI): > 100 µM | growth at 0.01 µM (UO-31): 94% | growth at 100 µM (SK-MEL-28): 92% | growth at 0.01 µM (DU-145): 106% | GI50 (SNB-75; read-out: GI50): > 100 µM | LC50 (SNB-75; read-out: LC50): > 100 µM | TGI (SNB-75; read-out: TGI): > 100 µM | GI50 (SNB-75; read-out: pGI50 (converted)): > 100 µM | LC50 (SNB-75; read-out: pLC50 (converted)): > 100 µM | TGI (SNB-75; read-out: pTGI): > 100 µM | growth at 100 µM (Malme-3M [10]): 80% | GI50 (U-251 [11]; read-out: GI50): > 100 µM | CC50 (U-251 [11]; [13]): > 100 µM | TGI (U-251 [11]; read-out: TGI): > 100 µM | GI50 (U-251 [11]; read-out: pGI50 (converted)): > 100 µM | CC50 (U-251 [11]; [14]): > 100 µM | TGI (U-251 [11]; read-out: pTGI): > 100 µM | growth at 0.01 µM (CAKI-1): 100% | growth at 100 µM (SR): 99% | growth at 100 µM (786-0): 122% | growth at 0.01 µM (U-251 [12]): 98% | growth at 0.01 µM (TK-10): 99%
